Holding throughout (type): cell-based
Test [1] relates to HeLa (human cervical cancer cells). As to the kind of experiment: CCK-8 cytotoxic assay, HeLa. The note with it: read-out: IC50 ± SD, HeLa. The text has this:
(§1) U251 (human glioma cells), HeLa (human cervical cancer cells), and HepG2 (human hepatic cancer cells) were purchased from the Chinese Academy of Sciences (China), and Capan-2 (human pancreatic cancer cells) were obtained from Nanjing Cobioer Biosicences (Nanjing, China). American Type Culture Collection (ATCC) provided LN229 (human glioma cells). NHA (Gibco Human Astrocytes) and Gibco Astrocyte Medium (DMEM, N-2 Supplement, One Shot fetal bovine serum) were purchased from ThermoFisher Scientific (Waltham, MA, USA). The LN229, U251, HepG2 and HeLa cells were cultured in DMEM (Procell, Wuhan, China). The Capan-2 cells were cultured in RPMI-1640 (Procell, Wuhan, China) and NHA cells were cultured in Gibco Astrocyte Medium, supplemented with 10% FBS (Solarbio, Beijing, China) and 1% Penicillin–Streptomycin (Elabscience Biotechnology Co.,Ltd, Wuhan, China) at 37 °C with 5% CO2.
(§2) In the exponential phase of the growth, five tumor cell lines and one normal human astrocytes were plated onto 96-well plates at a concentration of 8000 cells/well for 24 h. Compounds 1–12 were prepared to various concentrations (64, 32, 16, 8, 4, 2, 1 and 0.5 µM in medium containing less than 0.1% DMSO) and incubated in 96-well plates (each concentration in four-fold wells) for 24 h. Cell viability was determined according to reported assay methods using the commercial CCK-8 kit (Elabscience Biotechnology Co., Ltd., Wuhan, China). The optical density (OD) of each well was measured with an AMR-100 microplate reader at 450 nm (Allsheng Corporation, Hangzhou, China). Cytotoxicity emerged as the value of the drug concentration at the inhibition of cell growth by 50% (IC50). The experiments were conducted for three independent replicates, and Doxorubicin was used as the positive control.

Test [2] deals with LN229 (human glioma cells). As to the kind of experiment: CCK-8 cytotoxic assay, LN229. Conditions: read-out: IC50 ± SD, LN229.
Source text: as §1, §2

In test [3] the test system is NHA (normal human astrocytes). Description: CCK-8 cytotoxic assay, NHA normal astrocytes. The note with it: Astrocyte, read-out: IC50 ± SD, NHA.
Source text: as §1, §2

Test [4] deals with U251 (human glioma cells). As to the kind of experiment: CCK-8 cytotoxic assay, U251. Conditions: read-out: IC50 ± SD, U251.
Source text: as §1, §2

Test [5] has as its system Capan-2 (human pancreatic cancer cells). As to the kind of experiment: CCK-8 cytotoxic assay, Capan-2. The note with it: read-out: IC50 ± SD, Capan-2.
Source text: as §1, §2

The test system of test [6] is HepG2 (human hepatic cancer cells). As to the kind of experiment: CCK-8 cytotoxic assay, HepG2. Conditions: read-out: IC50 ± SD, HepG2.
Source text: as §1, §2

Test [7] deals with five cancer cell lines (LN229, U251, Capan-2, HeLa, HepG2). As to the kind of experiment: CCK-8 cytotoxic assay, summary over five cancer cell lines. Conditions: Homo sapiens, range over compounds 1 and 2 and five cancer cell lines, read-out: IC50 values (range) against five cancer cell lines.
Source text: as §1
In the exponential phase of the growth, five tumor cell lines and one normal human astrocytes were plated onto 96-well plates at a concentration of 8000 cells/well for 24 h. […] Cell viability was determined according to reported assay methods using the commercial CCK-8 kit (Elabscience Biotechnology Co., Ltd., Wuhan, China). The optical density (OD) of each well was measured with an AMR-100 microplate reader at 450 nm (Allsheng Corporation, Hangzhou, China). […]

Where [8] appears, read: LN-229, LN229 cells, CCK-8, 24 h.
The mark [9] stands for this setting: NHA normal human astrocytes, CCK-8, 24 h.

Like-named read-outs stand apart in the source and are kept apart here.

As for `C=C1C(=O)OC2CC3C4CC=C5CC(OC6OC(CO)C(OC7OC(CO)C(O)C7O)C(O)C6OC6OC(C)C(O)C(O)C6O)CCC5(C)C4CCC3(C)C12` (stereo not shown) [Compound 3], the IC50 in test [1] (HeLa cells, CCK-8, 24 h) was above 50 µM; in test [2] (setting [8]), above 50 µM; in test [3] (setting [9]) it was above 50 µM; in test [4] (U-251, U251 cells, CCK-8, 24 h) it was above 50 µM; in test [5] (Capan-2 cells, CCK-8, 24 h), above 50 µM; in test [6] (HepG2 cells, CCK-8, 24 h) it was above 50 µM.

As for `CC(=O)C1=CCC2C3CC=C4C[C@@H](O[C@@H]5O[C@H](CO)[C@@H](O)[C@H](O)[C@H]5O[C@@H]5O[C@@H](C)[C@H](O)[C@@H](O)[C@H]5O)CC[C@]4(C)C3CC[C@]12C` (stereo partly shown) [Compound 10, spongipregnolosides A], the concentration for half-maximal inhibition (IC50) was above 50 µM in test [1] (HeLa cells, CCK-8, 24 h); above 50 µM in test [2] (setting [8]); above 50 µM in test [3] (setting [9]); above 50 µM in test [4] (U-251, U251 cells, CCK-8, 24 h); above 50 µM in test [5] (Capan-2 cells, CCK-8, 24 h); above 50 µM in test [6] (HepG2 cells, CCK-8, 24 h).

As for `C=C1C(=O)OC2CC3C4CC=C5CC(OC6OC(CO)C(O)C(O)C6OC6OC(C)C(O)C(O)C6O)CCC5(C)C4CCC3(C)C12` (stereo not shown) [Compound 6, pallidifloside D], the IC50 in test [1] (HeLa, 24 h) was above 50 µM; in test [2] (LN-229, 24 h), above 50 µM; in test [3] (Homo sapiens, 24 h), above 50 µM; in test [4] (U-251, 24 h), above 50 µM; in test [5] (Capan-2, 24 h) it was above 50 µM; in test [6] (HepG2, 24 h) it was above 50 µM.

On to `CC(=O)C1=CC[C@H]2[C@@H]3CC=C4C[C@@H](O[C@@H]5O[C@H](CO)[C@@H](O[C@@H]6O[C@@H](C)[C@H](O)[C@@H](O)[C@H]6O)[C@H](O)[C@H]5O[C@@H]5O[C@@H](C)[C@H](O)[C@@H](O)[C@H]5O)CC[C@]4(C)[C@H]3CC[C@]12C` [Compound 11, hypoglaucin H], for which the IC50 in test [1] (HeLa cells, CCK-8, 24 h) was above 50 µM; in test [2] (setting [8]) it was above 50 µM; in test [3] (setting [9]), above 50 µM; in test [4] (U-251, U251 cells, CCK-8, 24 h), above 50 µM; in test [5] (Capan-2 cells, CCK-8, 24 h), above 50 µM; in test [6] (HepG2 cells, CCK-8, 24 h), above 50 µM.

With `Cc1c(CCC(C)COC2OC(CO)C(O)C(O)C2O)ccc2c1C1(C)CCC3C(CC=C4CC(OC5OC(CO)C(OC6OC(CO)C(O)C6O)C(O)C5OC5OC(C)C(O)C(O)C5O)CCC43C)C1C2` [Compound 8, 3-O-α-L-arabinofuranosyl-(1 → 4)-[α-L-rhamnopyranosyl (1 → 2)]-β-D-glucopyranosyl-β-D-chacotriosyl-26-O-β-D-glucopyranoside], the IC50 was above 50 µM in test [1] (HeLa cells, CCK-8, 24 h); above 50 µM in test [2] (setting [8]); above 50 µM in test [3] (setting [9]); above 50 µM in test [4] (U-251, U251 cells, CCK-8, 24 h); above 50 µM in test [5] (Capan-2 cells, CCK-8, 24 h); above 50 µM in test [6] (HepG2 cells, CCK-8, 24 h).

In the case of `C=C1C(=O)OC2CC3C4CC=C5CC(OC6OC(CO)C(OC7OC(C)C(O)C(O)C7O)C(O)C6OC6OC(C)C(O)C(O)C6O)CCC5(C)C4CCC3(C)C12` (stereo not shown) [Compound 5, chonglouoside SL-8], the IC50 in test [1] (HeLa cells, CCK-8, 24 h) was above 50 µM; in test [2] (setting [8]), above 50 µM; in test [3] (setting [9]), above 50 µM; in test [4] (U-251, U251 cells, CCK-8, 24 h), above 50 µM; in test [5] (Capan-2 cells, CCK-8, 24 h), above 50 µM; in test [6] (HepG2 cells, CCK-8, 24 h), above 50 µM.

For the compound `COc1cccc2c1C(=O)c1c(O)c3c(c(O)c1C2=O)C[C@@](O)(C(=O)CO)C[C@@H]3O[C@H]1C[C@H](N)[C@H](O)[C@H](C)O1` [Doxorubicin, reference compound], the IC50 in test [1] (HeLa cells, CCK-8, 24 h) was 0.18 ± 0.02 µM; in test [2] (setting [8]) it was 0.35 ± 0.05 µM; in test [3] (setting [9]), above 50 µM; in test [4] (U-251, U251 cells, CCK-8, 24 h) it was 0.21 ± 0.04 µM; in test [5] (Capan-2 cells, CCK-8, 24 h) it was 0.18 ± 0.02 µM; in test [6] (HepG2 cells, CCK-8, 24 h), 0.21 ± 0.02 µM.

Turning to `CC(=O)C1=CCC2C3CC=C4C[C@@H](O[C@@H]5O[C@H](CO)[C@@H](O[C@@H]6O[C@@H](CO)[C@H](O)[C@H]6O)[C@H](O)[C@H]5O[C@@H]5O[C@@H](C)[C@H](O)[C@@H](O)[C@H]5O)CC[C@]4(C)C3CC[C@]12C` (stereo partly drawn) [Compound 4, pregna-5,16-diene-3β-ol-20-one-3-O-α-L-arabinofuranosyl-(1 → 4)-[α-L-rhamnopyranosyl(1 → 2)]-β-D-glucopyranoside], the 50% inhibitory concentration (IC50) in test [1] (HeLa cells, CCK-8, 24 h) was above 50 µM; in test [2] (setting [8]), above 50 µM; in test [3] (setting [9]), above 50 µM; in test [4] (U-251, U251 cells, CCK-8, 24 h) it was above 50 µM; in test [5] (Capan-2 cells, CCK-8, 24 h) it was above 50 µM; in test [6] (HepG2 cells, CCK-8, 24 h) it was above 50 µM.

For the compound `CC1CCC2(OC1)OC1CC3C4CC=C5CC(OC6OC(COC7(CO)OC(CO)C(O)C7O)C(OC7OC(CO)C(O)C7O)C(O)C6OC6OC(C)C(O)C(O)C6O)CCC5(C)C4CCC3(C)C1C2C` [Compound 2, diosgenin-3-O-β-D-fructofuranosyl-(1 → 6)-[α-L-arabinofuranosyl-(1→4)]-[α-L-rhamnopyranosyl-(1→2)]-β-D-glucopyranoside], the half-maximal inhibitory concentration (IC50) in test [1] (HeLa cells, CCK-8, 24 h) was 22.3 ± 1.33 µM; in test [7] it was 3.26 to 22.3 µM; in test [2] (setting [8]) it was 15.4 ± 0.47 µM; in test [3] (setting [9]) it was above 50 µM; in test [4] (U-251, U251 cells, CCK-8, 24 h), 15.8 ± 0.65 µM; in test [5] (Capan-2 cells, CCK-8, 24 h), 20.4 ± 1.05 µM. In test [6] (HepG2 cells, CCK-8, 24 h), the IC50 turned out to be 18.8 ± 1.25 µM.

`Cc1c(CCC(C)COC2OC(CO)C(O)C(O)C2O)ccc2c1C1(C)CCC3C(CC=C4CC(OC5OC(CO)C(O)C(O)C5OC5OC(C)C(O)C(O)C5O)CCC43C)C1C2` (stereo not shown) [Compound 12, parispseudoside B]: the IC50 in test [1] (HeLa cells, CCK-8, 24 h) is above 50 µM; in test [2] (setting [8]) it was above 50 µM; in test [3] (setting [9]), above 50 µM; in test [4] (U-251, U251 cells, CCK-8, 24 h), above 50 µM; in test [5] (Capan-2 cells, CCK-8, 24 h) it was above 50 µM; in test [6] (HepG2 cells, CCK-8, 24 h) it was above 50 µM.

As to `Cc1c(CCC(C)COC2OC(CO)C(O)C(O)C2O)ccc2c1C1(C)CCC3C(CC=C4CC(OC5OC(CO)C(OC6OC(C)C(O)C(O)C6O)C(O)C5OC5OC(C)C(O)C(O)C5O)CCC43C)C1C2` (stereo not shown) [Compound 9, aethioside A], the half-inhibitory concentration (IC50) was above 50 µM in test [1] (HeLa cells, CCK-8, 24 h); above 50 µM in test [2] (setting [8]); above 50 µM in test [3] (setting [9]); above 50 µM in test [4] (U-251, U251 cells, CCK-8, 24 h); above 50 µM in test [5] (Capan-2 cells, CCK-8, 24 h); above 50 µM in test [6] (HepG2 cells, CCK-8, 24 h).

As for `Cc1c(CCC(C)COC2OC(CO)C(O)C(O)C2O)ccc2c1C1(C)CCC3C(CC=C4CC(OC5OC(CO)C(OC6OC(C)C(OC7OC(C)C(O)C(O)C7O)C(O)C6O)C(O)C5OC5OC(C)C(O)C(O)C5O)CCC43C)C1C2` (stereo not shown) [Compound 7, parispseudoside A], the half-maximal inhibitory concentration (IC50) was above 50 µM in test [1] (HeLa cells, CCK-8, 24 h); above 50 µM in test [2] (setting [8]); above 50 µM in test [3] (setting [9]); above 50 µM in test [4] (U-251, U251 cells, CCK-8, 24 h); above 50 µM in test [5] (Capan-2 cells, CCK-8, 24 h); above 50 µM in test [6] (HepG2 cells, CCK-8, 24 h).

The record behind these values is article PMC10138723, “Cytotoxic Steroidal Saponins Containing a Rare Fructosyl from the Rhizomes of Paris polyphylla var. latifolia” (International Journal of Molecular Sciences, 2023).
